Assay results from US20040225019A1, “Methods of preventing or treating motion sickness” (priority 2003, published 2004).
“Also recorded” adds a separate entry of the source.

Tests used:
[1] = Cognitive assessment battery before and after drug and chair ride; type: in vivo, human; conditions: for Mean Reaction Time: n = 15
Excerpt: (§1) Test medications were taken two hours after finishing breakfast. […] On the study day, the subjects came to the lab, performed the cognitive testing battery and were observed taking the test medication. The time of drug ingestion was documented and the subjects returned three hours after taking the medication to complete the cognitive testing battery and ride in the chair. Prior to entering the chair, subjects received a standardized test briefing. Every minute during the testing, subjects were quizzed for motion sickness symptoms and asked to rate their own symptoms on a ratio scale. Testing continued until either 20 minutes elapsed, the subject requested testing stop, or severe nausea or vomiting was experienced (i.e., the subject reached a subjective 10 on their scale). Blood pressure, respiratory rate and pulse were measured before and after the chair ride using a Critikon DINAMAP® 1846-SX device.
A standard cognitive assessment battery (Dinges, et al. (1997) Sleep 20(4):267-7; Neri, et al. (1995) Aviat. Space Environ. Med 66(4):313-9; Richardson, et al. (1996) Sleep 19(9):718-26) used in studies of sleep deprivation (Jewett, et al. (1999) Sleep 22(2):171-9) was used which included both objective and subjective measures of performance and wakefulness. The overall battery takes 20 minutes to administer and has been used successfully on the Neurolab space shuttle mission to assess how sleep loss affected crewmembers.
The cognitive tests were performed three times for each chair ride. The first test served as a baseline, the second test was administered at the peak of drug effect and the last test was after the chair ride. In this design, the results of the second test reflect changes due to drug effect, while the results from the third test reflect a combination of drug effect and motion sickness effects.

[2] = Questionnaire about side effects after chair ride
[3] = test system: motion sickness; assay: Off-vertical rotation chair motion sickness test; type: in vivo, human; conditions: for Mean Time (chair time): ride 3 h after drug, placebo 7.2; for Mean Time (chair time) / Mean Motion Sickness Severity Score: n = 18; for Mean Motion Sickness Severity Score: end of chair ride, placebo 18.2
Excerpt: Motion sickness was simulated by rotation in a tilted chair, also known as off-vertical rotation (Knox, et al. (1994) Laryngoscope 104(8 Pt 1):935-9; Woodard, et al. (1993) Aviat. Space Environ. Med. 64(5):363-6; Mowrey and Clayson (1982) Lancet 1(8273):655-7; Graybiel and Miller (1970) Aero. Med. 41(4):407-10). Off-vertical rotation produces motion sickness symptoms in more than 90% of subjects tested and has a high test-retest reliability. No provocative head motions are required which minimizes subject fatigue and training. For each run, the chair was tilted to 15 degrees off vertical, and accelerated at 5 degrees/sec^2 to 17.5 revolutions per minute. […] The subject was restrained with a seat belt and shoulder harness. The subject's head was also secured to the headrest with a strap to prevent head movements. Opaque goggles were placed over the subject's eyes.
The degree of motion sickness was assessed in three different ways. For the first method, the subjects were instructed how to use a well-known ratio scaling method (Bock and Oman (1982) Aviat. Space Environ. Med. 53(8):773-7) and were given a familiarization run in the chair to experience the motion sickness symptoms. The subjects were instructed to rate the peak overall discomfort they experienced in the familiarization ride as a “10” and to remember this level. They were instructed to rate all other levels of discomfort relative to this level. For example, discomfort which was half as severe would be rated as a “5”. This method is similar other well-known methods (see, e.g., Stott, et al. (1989) Br. J. Clin. Pharma. 27(2):147-57).
The second method was symptom recording. Prior to the familiarization run the subjects were instructed about the different symptoms that might occur (drowsiness, epigastric awareness, and the like). The subjects were asked about these symptoms each minute during the rotation and logged on a scoring sheet (Miller and Graybiel (1970) Aero. Med. 41(4):407-10), which was a variant of the Pensacola Diagnostic Rating Scale. The symptoms were assigned points and from these points, five levels of severity were determined (frank sickness, severe malaise, moderate malaise A, moderate malaise B, slight malaise).
The third method used to assess motion sickness was to record the total number of minutes the subject rides in the chair before stopping (Woodard, et al. (1993) supra; Mowrey and Clayson (1982) supra).
The studies employed a double-blind, placebo controlled, crossover design. […] The placebo was a single lactose capsule. […] The medications were labeled only with the subject's name, identification number and sequence of administration (i.e., Run 1, Run 2, Run 3). […] Both the research team and subjects were unaware of the order of administration.
Prior to the ride, subjects received a briefing on the symptoms they might experience, how to report those symptoms and instructions on when to stop the test. After the familiarization ride the subjects were instructed to remember their peak overall discomfort as a “10” and to rate all future symptoms relative to that baseline.
The subjects rode in the chair once for each treatment (low dose, high dose, and placebo) with at least one week between rides. A one week interval between rides is sufficient to prevent habituation to the rotating stimulus (Kohl (1987) Aviat. Space Environ. Med. 58(2):125-31; Stott, et al (1989) supra).
as §1, with “Testing continued until either 20 minutes elapsed, the subject requested testing stop, or severe nausea or vomiting was experienced (i.e., the subject reached a subjective 10 on their scale). Blood pressure, respiratory rate and pulse were measured before and after the chair ride using a Critikon DINAMAP® 1846-SX device.” left out

- Mean Reaction Time ([1]; High Dose 12 mg, PostDrug): 281.5 ms
- Mean Reaction Time ([1]; High Dose 12 mg, PostRide): 298.4 ms
- Mean Reaction Time ([1]; High Dose 12 mg, PreDrug (baseline before drug)): 265.1 ms
- Karolinska sleepiness scores ([1]; High dose 12 mg, after chair rides, p<0.0001): higher sleepiness scores
- Reaction time (significance) ([1]; High dose 12 mg, after the chair rides, p=0.0002): significantly increased
- Mean Reaction Time ([1]; Low Dose 4 mg, PostDrug): 286.1 ms
- Mean Reaction Time ([1]; Low Dose 4 mg, PostRide): 295.2 ms
- Mean Reaction Time ([1]; Low Dose 4 mg, PreDrug (baseline before drug)): 271.2 ms
Structure (SMILES): CN(C)CCC(c1ccc(Cl)cc1)c1ccccn1 (racemic) [chlorpheniramine]
- Performance in objective tests of addition, tracking and memory ([1]; 4 mg and 12 mg doses): does not affect performance; also recorded: not significantly affected
- Scores on the alert-sleepy mood scale ([1]; High dose 12 mg, p<0.0001): significantly changed toward the sleepy portion of the scale
- Scores on the clearheaded-groggy mood scale ([1]; High dose 12 mg, p<0.0001): significantly changed toward the groggy portion of the scale
- Most commonly reported toxicities ([2]; after chair rides, 18 subjects): drowsiness and dry mouth
- Tendency to report a side effect with drug versus placebo ([2]; chi-square analysis): did not reach statistical significance
- Mean Time (chair time) ([3]; High Dose 12 mg chlorpheniramine capsule): 11.7 min
- Mean Motion Sickness Severity Score ([3]; High Dose 12 mg): 12.4
- Motion sickness severity score at end of chair ride (significance) ([3]; High dose 12 mg versus placebo (p=0.0004) and low dose (p=0.01)): significantly less
- Increase of mean chair time versus placebo ([3]; High dose 12 mg, 7.2 to 11.7 minutes): 63%
- Effect on chair time versus placebo (significance) ([3]; High dose 12 mg, p=0.001): significantly increased chair time
- Mean Time (chair time) ([3]; Low Dose 4 mg chlorpheniramine capsule): 10.2 min
- Mean Motion Sickness Severity Score ([3]; Low Dose 4 mg): 16.4
- Subjects who increased chair time to the maximum (20 minutes) ([3]; of 18 subjects, rides stopped at 20 minutes): Three
